Reference: patent US10160726B2, “Quinolone derivatives as antibacterials” (priority 2014, dated 2018)
Converted amounts (≈) assume the structure as drawn. Counter-ions that a name gives are not always drawn. Like-named read-outs stand apart in the source and are kept apart here.

Legend:
Assay type in all cases: cell-based
[1] = tested on: P. aeruginosa NB52023-CDK0006 (gyrA T83I, parC S87L); assay: microbe, parasite or virus in culture; conditions: Pseudomonas aeruginosa, 20 h, read-out: Antibacterial activity (MIC) NB52023-CDK0006
[2] = tested on: P. aeruginosa NB52019 (wild-type PAO1); assay: MIC, broth microdilution (CLSI)
[3] = tested on: P. aeruginosa NB52023 (efflux deficient K1542, ΔmexX ΔmexB); assay: microbe, parasite or virus in culture; conditions: Pseudomonas aeruginosa, 20 h, read-out: Antibacterial activity (MIC) NB52023
[4] = tested on: E. coli ATCC 25922 (NB27001); assay: MIC, broth microdilution (CLSI); conditions: Escherichia coli, read-out: Antibacterial activity (MIC) NB27001
[5] = tested on: S. aureus NB01006-AVR005 (gyrA S84L, grlA S80F, grlB E471K); assay: microbe, parasite or virus in culture; conditions: Staphylococcus aureus, 20 h, read-out: Antibacterial activity (MIC) NB01006-AVR005
[6] = tested on: E. coli NB27177 (efflux deficient CGSC 11430, ΔtolC732::kan); assay: microbe, parasite or virus in culture; conditions: Escherichia coli, 20 h, read-out: Antibacterial activity (MIC) NB27177
[7] = tested on: S. aureus ATCC 29213 (NB01001); assay: MIC, broth microdilution (CLSI); conditions: Staphylococcus aureus, read-out: Antibacterial activity (MIC) NB01001
[8] = Pseudomonas aeruginosa, PAO1, 20 h; read-out: Antibacterial activity (MIC) NB52019
[9] = ATCC25922, E. coli ATCC 25922, 35° C., 20 hours
[10] = ATCC29213, S. aureus ATCC 29213, 35° C., 20 hours
[11] = Pseudomonas aeruginosa; P. aeruginosa wild-type PAO1; 35° C., 20 hours; read-out: Antibacterial activity (MIC) NB52019

| Compound | MIC [1] [µg/mL] | MIC [2, 8] [µg/mL] | MIC [3] [µg/mL] | MIC [4, 9] [µg/mL] | MIC [5] [µg/mL] | MIC [6] [µg/mL] | MIC [7, 10] [µg/mL] | MIC [2, 11] [µg/mL] | MIC ([2]; Pseudomonas aeruginosa, PAO1, 20 h, read-out: Antibacterial activity (MIC) NB52019) [µg/mL] | MIC ([4]; ATCC25922, 20 h) [µg/mL] | MIC ([7]; ATCC29213, 20 h) [µg/mL] |
| --- | --- | --- | --- | --- | --- | --- | --- | --- | --- | --- | --- |
| Cc1c(C#N)c2cc(F)c(N3CC[C@@H]([C@H](C)N)C3)c(C)c2n(C2CC2)c1=O [Example 28, 7-((R)-3-((S)-1-aminoethyl)pyrrolidin-1-yl)-1-cyclopropyl-6-fluoro-3,8-dimethyl-2-oxo-1,2-dihydroquinoline-4-carbonitrile] | 0.5 (≈ 1.36 µM) | 16 (≈ 43.4 µM) | 2 (≈ 5.43 µM) | 2 (≈ 5.43 µM) | < 0.03 | < 0.03 | < 0.03 | – | – | – | – |
| COc1cc2cc(F)c(N3CC[C@@H]([C@H](C)N)C3)c(C)c2n(C2CC2)c1=O [Example 6, 7-((R)-3-((S)-1-aminoethyl)pyrrolidin-1-yl)-1-cyclopropyl-6-fluoro-3-methoxy-8-methylquinolin-2(1H)-one] | 32 (≈ 89 µM) | 32 (≈ 89 µM) | 8 (≈ 22.3 µM) | 2 (≈ 5.56 µM) | 0.5 (≈ 1.39 µM) | 0.125 (≈ 0.348 µM) | 0.125 (≈ 0.348 µM) | – | – | – | – |
| COc1c(C)c(=O)n(C2CC2)c2c(C)c(-c3ccc(N)nc3)ccc12 [Example 70, 7-(6-aminopyridin-3-yl)-1-cyclopropyl-4-methoxy-3,8-dimethylquinolin-2(1H)-one] | > 32 | 32 (≈ 95.4 µM) | > 32 | 32 (≈ 95.4 µM) | 4 (≈ 11.9 µM) | 2 (≈ 5.96 µM) | 16 (≈ 47.7 µM) | – | – | – | – |
| Cc1c(N2CC[C@@H]([C@H](C)N)C2)c(F)cc2c(C(=N)NO)cc(=O)n(C3CC3)c12 [Example 40, 7-((R)-3-((S)-1-aminoethyl)pyrrolidin-1-yl)-1-cyclopropyl-6-fluoro-N-hydroxy-8-methyl-2-oxo-1,2-dihydroquinoline-4-carboximidamide] | 8 (≈ 20.6 µM) | 16 (≈ 41.3 µM) | 4 (≈ 10.3 µM) | 4 (≈ 10.3 µM) | 4 (≈ 10.3 µM) | 0.5 (≈ 1.29 µM) | 4 (≈ 10.3 µM) | – | – | – | – |
| COC(=O)C#Cc1cc(=O)n(C2CC2)c2c(C)c(N3CC[C@@H]([C@H](C)N)C3)c(F)cc12 [Example 26, Methyl 3-(7-((R)-3-((S)-1-aminoethyl)pyrrolidin-1-yl)-1-cyclopropyl-6-fluoro-8-methyl-2-oxo-1,2-dihydroquinolin-4-yl)propiolate] | 32 (≈ 77.8 µM) | > 32 | 16 (≈ 38.9 µM) | 32 (≈ 77.8 µM) | 0.25 (≈ 0.608 µM) | 1 (≈ 2.43 µM) | 1 (≈ 2.43 µM) | – | – | – | – |
| Cc1c(N2CC[C@@H]([C@H](C)N)C2)c(F)cc2c(N)cc(=O)n(C3CC3)c12 [Example 36, 4-amino-7-((R)-3-((S)-1-aminoethyl)pyrrolidin-1-yl)-1-cyclopropyl-6-fluoro-8-methylquinolin-2(1H)-one] | > 16 | > 16 | 16 (≈ 46.5 µM) | 16 (≈ 46.5 µM) | 1 (≈ 2.9 µM) | 1 (≈ 2.9 µM) | 2 (≈ 5.81 µM) | – | – | – | – |
| Cc1c(N2CCNCC2)c(F)cc2c(CN)cc(=O)n(C3CC3)c12 [Example 81.09, 4-(aminomethyl)-1-cyclopropyl-6-fluoro-8-methyl-7-(piperazin-1-yl)quinolin-2(1H)-one] | 2 (≈ 6.05 µM) | – | 0.5 (≈ 1.51 µM) | 2 (≈ 6.05 µM) | 16 (≈ 48.4 µM) | 0.5 (≈ 1.51 µM) | 16 (≈ 48.4 µM) | 4 (≈ 12.1 µM) | – | – | – |
| COc1cc(=O)n(C2CC2)c2c(C)c(N3CC[C@@H]([C@H](C)N)C3)c(F)cc12 [Example 67, 7-((R)-3-((S)-1-aminoethyl)pyrrolidin-1-yl)-1-cyclopropyl-6-fluoro-4-methoxy-8-methylquinolin-2(1H)-one] | 16 (≈ 44.5 µM) | 32 (≈ 89 µM) | 8 (≈ 22.3 µM) | 8 (≈ 22.3 µM) | 0.06 (≈ 0.167 µM) | 0.06 (≈ 0.167 µM) | 0.06 (≈ 0.167 µM) | – | – | – | – |
| COc1c(N2CCC(CN)C2)c(F)cc2ccc(=O)n(C3CC3)c12.O=C(O)C(F)(F)F (stereo not shown) [Example 110, 7-(3-(aminomethyl)pyrrolidin-1-yl)-1-cyclopropyl-6-fluoro-8-methoxyquinolin-2(1H)-one TFA salt] | 32 | – | 16 | 4 | 0.125 | – | 0.25 | > 32 | – | – | – |
| Cc1c(N2CC[C@@H]([C@H](C)N)C2)c(F)cc2c(-c3cc(F)c(O)c(F)c3)cc(=O)n(C3CC3)c12 [Example 20, 7-((R)-3-((S)-1-aminoethyl)pyrrolidin-1-yl)-1-cyclopropyl-4-(3,5-difluoro-4-hydroxyphenyl)-6-fluoro-8-methylquinolin-2(1H)-one] | 16 (≈ 35 µM) | > 32 | 32 (≈ 69.9 µM) | 32 (≈ 69.9 µM) | 0.25 (≈ 0.546 µM) | 0.125 (≈ 0.273 µM) | 0.5 (≈ 1.09 µM) | – | – | – | – |
| Cc1c(N2CC[C@H](O)C2)c(F)cc2c(OCCN(C)C)cc(=O)n(C3CC3)c12 [Example 55, (S)-1-cyclopropyl-4-(2-(dimethylamino)ethoxy)-6-fluoro-7-(3-hydroxypyrrolidin-1-yl)-8-methylquinolin-2(1H)-one] | 32 (≈ 82.2 µM) | > 32 | 32 (≈ 82.2 µM) | 8 (≈ 20.5 µM) | 0.5 (≈ 1.28 µM) | 0.125 (≈ 0.321 µM) | 0.5 (≈ 1.28 µM) | – | – | – | – |
| Cc1c(N2CC[C@@H](CN)C2)c(F)cc2c(C#N)cc(=O)n(C3CC3)c12 [Example 31, (S)-7-(3-(aminomethyl)pyrrolidin-1-yl)-1-cyclopropyl-6-fluoro-8-methyl-2-oxo-1,2-dihydroquinoline-4-carbonitrile] | 4 (≈ 11.8 µM) | 8 (≈ 23.5 µM) | 2 (≈ 5.88 µM) | 2 (≈ 5.88 µM) | 0.06 (≈ 0.176 µM) | < 0.03 | 0.06 (≈ 0.176 µM) | – | – | – | – |
| Cc1c(N2CC[C@@H]([C@H](C)N)C2)c(F)cc2c(OCCCC(=O)NO)cc(=O)n(C3CC3)c12 [Example 60, 4-((7-((R)-3-((S)-1-aminoethyl)pyrrolidin-1-yl)-1-cyclopropyl-6-fluoro-8-methyl-2-oxo-1,2-dihydroquinolin-4-yl)oxy)-N-hydroxybutanamide] | > 32 | > 32 | > 32 | 32 (≈ 71.7 µM) | 4 (≈ 8.96 µM) | 1 (≈ 2.24 µM) | 8 (≈ 17.9 µM) | – | – | – | – |
| COc1cc2ccc(N3CC[C@@H]([C@H](C)N)C3)c(C)c2n(C2CC2)c1=O [Example 80, 7-((R)-3-((S)-1-aminoethyl)pyrrolidin-1-yl)-1-cyclopropyl-3-methoxy-8-methylquinolin-2(1H)-one TFA salt] | > 32 | > 32 | > 32 | 32 | 2 | 2 | 1 | – | – | – | – |
| CC(=O)N[C@@H](C)[C@@H]1CCN(c2c(F)cc3c(OCCN(C)C)cc(=O)n(C4CC4)c3c2C)C1 [Example 50, N—((S)-1-((R)-1-(1-cyclopropyl-4-(2-(dimethylamino)ethoxy)-6-fluoro-8-methyl-2-oxo-1,2-dihydroquinolin-7-yl)pyrrolidin-3-yl)ethyl)acetamide] | > 32 | > 32 | > 32 | 32 (≈ 69.8 µM) | 2 (≈ 4.36 µM) | 0.125 (≈ 0.273 µM) | 1 (≈ 2.18 µM) | – | – | – | – |
| Cc1c(N2CC[C@@H]([C@H](C)N)C2)c(F)cc2c(OCCN(C)C)cc(=O)n(C3CC3)c12 [Example 49, 7-((R)-3-((S)-1-aminoethyl)pyrrolidin-1-yl)-1-cyclopropyl-4-(2-(dimethylamino)ethoxy)-6-fluoro-8-methylquinolin-2(1H)-one] | 8 (≈ 19.2 µM) | – | 4 (≈ 9.6 µM) | – | 0.25 (≈ 0.6 µM) | 0.06 (≈ 0.144 µM) | – | – | 8 (≈ 19.2 µM) | 1 (≈ 2.4 µM) | 0.125 (≈ 0.3 µM) |
| COc1cc2cc(F)c(-c3ccc(N)nc3)c(C)c2n(C2CC2)c1=O [Example 7, 7-(6-aminopyridin-3-yl)-1-cyclopropyl-6-fluoro-3-methoxy-8-methylquinolin-2(1H)-one] | > 32 | > 32 | > 32 | 32 (≈ 94.3 µM) | 4 (≈ 11.8 µM) | 0.25 (≈ 0.737 µM) | 2 (≈ 5.89 µM) | – | – | – | – |
| Cc1c(N2CCC(F)(CN)C2)c(F)cc2cc(CO)c(=O)n(C3CC3)c12 (stereo not shown) [Example 96, 7-(3-(aminomethyl)-3-fluoropyrrolidin-1-yl)-1-cyclopropyl-6-fluoro-3-(hydroxymethyl)-8-methylquinolin-2(1H)-one] | 8 (≈ 22 µM) | 32 (≈ 88.1 µM) | 8 (≈ 22 µM) | 2 (≈ 5.5 µM) | 1 (≈ 2.75 µM) | – | 0.5 (≈ 1.38 µM) | – | – | – | – |
| Cc1c(N2CC[C@H](O)C2)c(F)c(F)c2c(CN3CCN(C)CC3)cc(=O)n(C3CC3)c12 [Example 90, (S)-1-cyclopropyl-5,6-difluoro-7-(3-hydroxypyrrolidin-1-yl)-8-methyl-4-((4-methylpiperazin-1-yl)methyl)quinolin-2(1H)-one trifluoro acetic acid] | 32 (≈ 74 µM) | > 32 | 32 (≈ 74 µM) | 16 (≈ 37 µM) | 0.125 (≈ 0.289 µM) | – | 0.125 (≈ 0.289 µM) | – | – | – | – |
